Measured values taken from patent publication US20260234173A1, “STRUCTURED MOLECULAR VECTORS FOR ANTI-INFLAMMATORY COMPOUNDS AND USES THEREOF” (Universite Claude Bernard Lyon 1, priority 2019, published 2026).

How the values were obtained:
[1] = tested on: hippocampal LTP in rats subjected to Pilo-SE; experiment: Hippocampal LTP in slices from Pilo-SE rats treated in vivo (i.p. or per os); parameters: species or system rat
Method: (§1) In this experiment we used male Sprague-Dawley rats (ENVIGO, Netherlands). Pups were received at 14 day-old (postnatal day 14 (P14)) with their foster mother, and were maintained in groups of 10 in plastic cages (405 mm×255 mm×197 mm) with free access to food and water. All animal procedures are in accordance with the guidelines of the Animal Care and Use Committee of the University Claude Bernard Lyon 1.
(§2) All injected solutions were prepared in sterile saline (0.9% w/v). At weaning (postnatal day 20 (P20)), Sprague-Dawley male rat pups were first injected i.p. with lithium chloride (127 mg/Kg; Sigma-Aldrich), to decrease the dose of pilocarpine needed to trigger Status Epilepticus (SE). Scopolamine methylnitrate (1 mg/Kg; Sigma-Aldrich) was injected s.c. 18 h later, to alleviate peripheral cholinergic adverse side effects. Pilocarpine hydrochloride (25 mg/Kg; Sigma-Aldrich) was injected i.p. 30 min later, to induce SE. […] The rats were placed on a heated pad, under continuous observation, until they recovered from sedation. Following recovery, the rats were returned to the nursing mother until P23. Control rats only received saline injections. All rats were then housed in groups of 10 and weighed daily, during the 5 following days, to control for food intake, and then twice weekly until the end of experiment (three weeks post SE).
(§3) At P28-38, Sprague-Dawley rats were anesthetized with isoflurane, the forebrain was removed and placed in ice cold standard artificial cerebrospinal fluid (ACSF), consisting of (in mM): 124 NaCl, 5 KCl, 1.25 Na2HPO4, 2 MgSO4, 2 CaCl2), 26 NaHCO3, supplemented with 10 D-glucose, and bubbled with 95% O2 and 5% CO2. Hippocampal transverse slices were cut into 350 μm thick sections, using a vibratome (Leica VT1000S), and incubated in ACSF at room temperature for at least 1 h, before the transfer to the recording chamber. The ACSF used for perfusion was supplemented with picrotoxin (100 μM; Sigma-Aldrich), to block GABA-A receptors and therefore to facilitate the induction of NMDA receptors-dependent Long-Term Potentiation (LTP). CA1 pyramidal cells were visualized with a Zeiss Axioskop 2, equipped with a X40 objective, using infrared video microscopy and differential interference contrast optics. Whole-cell recordings from pyramidal neurons in the CA1 layer were obtained with patch electrodes, which were filled with a solution containing (in mM): 120 potassium gluconate, 20 KCl, 0.2 EGTA, 2 MgCl2, 10 HEPES, 4 Na2ATP, 0.3 Tris-GTP and 14 mM phosphocreatine (pH 7.3, adjusted with KOH). Drugs were applied in the bath of the hippocampal slices. Electrode resistances ranged from 3-5 MΩ. Series resistance was continually monitored, and experiments were discarded if it changed by >20%.
Capillary glass pipettes filled with ACSF and connected to an Iso-Flex stimulus isolation unit (A.M.P.I.) were placed in stratum radiatum, to evoke excitatory postsynaptic potentials (EPSPs) in CA1 pyramidal neurons. Cells were held at −70 mV to record EPSPs, and the stimulation strength was set to evoke EPSPs between 5-8 mV. LTP was induced by the theta burst pairing (TBP) protocol, which consisted of EPSPs paired with single back-propagating action potentials (b-APs), timed so that the b-AP (~15 ms delay) occurred at the peak of the EPSPs, as measured in the soma. A single burst contained five pairs delivered at 100 Hz and ten bursts were delivered at 5 Hz per sweep. Three sweeps were delivered at 10 s intervals for a total of 30 bursts (150 b-AP-EPSP pairs). The b-APs were elicited by direct somatic current injection (1 ms, 1-2 nA). This induction protocol was always applied within 20 min of achieving whole-cell configuration, to avoid “wash-out” of LTP.

[2] = Metabolic fate of SSL-X1 in the digestive tract of rats after per os administration; assay type: in vivo; conditions: 227 μg lipid phosphorus per os, sacrificed 5, 8 and 36 hours after administration
[3] = tested on: SE-induced neuroinflammation (hippocampus and ventral limbic region); experiment: Neuroinflammatory response induced by status epilepticus in rats, per os SSL-X1; assay type: in vivo, rat; conditions: 100 mg/Kg per os 1 h after onset of SE; hippocampus and ventral limbic region 24 h after SE; 21-day-old rats
Description: In these experiments, 21-day-old Sprague Dawley rats (ENVIGO, The NETHERLAND) were subjected to pilocarpine-induced status epilepticus (SE) as described below in details (§ B.3). Three groups of rats were constituted: (i) CTRL-NaCl, i.e. control rats that just received NaCl each time a treatment was given in the other groups of rats; (ii) SE-NaCl, i.e. rats that were subjected to SE and that received NaCl per os instead of SSL-X1; (iii) SE-SSL-X1, i.e. rats that were subjected to SE and that were administered with SSL-X1 vector (100 mg/Kg) per os 1 h after the onset of SE. The vectors were dissolved in 100 μL of NaCl. Due to their hydrophobic nature, the preparation was emulsified until complete dissolution of the lipid vector. Twenty-four hours later, rats were sacrificed using a lethal injection of pentobarbital (250 mg/Kg; i.p.) and brain tissues, i.e. the hippocampus (HI) and the ventral limbic region (VLR, which includes the amygdala, the piriform and the insular agranular cortices) were collected and processed as mentioned above (§ B.2.2). Analysis of the expression level of the key markers of neuroinflammation was performed by RT-qPCR as described above using the primer pairs shown in Table 1. […]

[4] = tested on: LPS-induced neuroinflammation (hippocampus and neocortex); experiment: LPS-induced neuroinflammation in vivo in rats (RT-qPCR, Neuroinflammation Index); parameters: species or system rat; conditions: 6 h post-LPS
[5] = tested on: Pilo-SE-induced inflammation in the hippocampus; experiment: Resolution of inflammation in hippocampus following pilocarpine-induced status epilepticus (Pilo-SE); assay type: in vivo, rat; conditions: 2 mg/kg i.p. after 2 h of SE; hippocampus 9 h post-SE; 42-day-old rats
Method: Male Sprague-Dawley rats (Envigo, The Netherlands) were subjected to Pilo-SE at 42 days of age (185 g). SE was triggered by pilocarpine hydrochlorate (350 mg/kg, i.p.), 30 min after the administration of scopolamine methylnitrate (1 mg/kg, s.c.), used to reduce peripheral side effects of pilocarpine. After 2 h of continuous SE, rats were administered with diazepam (10 mg/kg, i.p.) to stop SE, and then immediately treated with SYN (2 mg/kg, i.p.), SYN-Pn (2 mg/kg, i.p.) in 300 μL of NaCl. Non-treated rats subjected to Pilo-SE were injected with 300 μL of NaCl (i.p.) instead of SYN or SYN-Pn. All rats received a second administration of diazepam (5 mg/kg, s.c.), 1 h after the first one, and sacrificed 9 h post-SE. The brains were collected, the hippocampus microdissected on ice, the RNA extracted and RT-qPCR performed as described above using the primer pairs shown in Table 1. The time at which rats were sacrificed was chosen based on our preliminary experiments that allowed us to determine that the peak of brain inflammation was observed 7-12 hours after the onset of SE.

[6] = tested on: CA1 pyramidal neurons in hippocampal slices from rats subjected to Pilo-SE; experiment: Hippocampal LTP in slices from Pilo-SE rats, compound perfused in the bath (ex vivo); assay type: cell-based, rat; conditions: slices 1-2 weeks post Pilo-SE
Method: as §1, §2, §3
Capillary glass pipettes filled with ACSF and connected to an Iso-Flex stimulus isolation unit (A.M.P.I.) were placed in stratum radiatum, to evoke excitatory postsynaptic potentials (EPSPs) in CA1 pyramidal neurons. Cells were held at −70 mV to record EPSPs, and the stimulation strength was set to evoke EPSPs between 5-8 mV. LTP was induced by the theta burst pairing (TBP) protocol, which consisted of EPSPs paired with single back-propagating action potentials (b-APs), timed so that the b-AP (~15 ms delay) occurred at the peak of the EPSPs, as measured in the soma. A single burst contained five pairs delivered at 100 Hz and ten bursts were delivered at 5 Hz per sweep. Three sweeps were delivered at 10 s intervals for a total of 30 bursts (150 b-AP-EPSP pairs). […]

[7] = tested on: epileptic rats (post Pilo-SE); experiment: Morris water maze (MWM) spatial learning in epileptic rats; assay type: in vivo, rat; conditions: epileptic rats injected during the first week post-SE, tested 5 weeks post-SE, versus saline
Method: All injected solutions were prepared in sterile saline (0.9% w/v). At weaning (postnatal day 20 (P20)), Sprague-Dawley male rat pups were first injected i.p. with lithium chloride (127 mg/Kg; Sigma-Aldrich), to decrease the dose of pilocarpine needed to trigger Status Epilepticus (SE). Scopolamine methylnitrate (1 mg/Kg; Sigma-Aldrich) was injected s.c. 18 h later, to alleviate peripheral cholinergic adverse side effects. Pilocarpine hydrochloride (25 mg/Kg; Sigma-Aldrich) was injected i.p. 30 min later, to induce SE. After 30 min of continuous behavioral SE, diazepam (Valium®, Roche) was injected i.p. at 10 mg/Kg, to promote survival and initiate cessation of behavioral seizures, that completely stopped after a second s.c. injection of diazepam, given 90 min later at the dose of 5 mg/Kg. The rats were placed on a heated pad, under continuous observation, until they recovered from sedation. Following recovery, the rats were returned to the nursing mother until P23. Control rats only received saline injections. […]
Spatial learning ability was measured at 5 weeks post-SE by the Morris water maze (MWM). […]
The statistical analyses were performed using SigmaPlot software version 12. […] For MWM test, data were analyzed by two-way repeated measures ANOVA followed by Fisher LSD post hoc tests to compare differences between groups at several time points.

[8] = tested on: NR8383 cells; conditions: LPS 100 ng/mL; compound 10, 100, 500, 1,000 nM within <2 min after LPS; 5 hours
Method: NR8383 cells were seeded at 53,000 cells/cm^2 in T75 flasks, the medium consisted in Ham's F12K medium completed with 1% pen/strep, and 15% fetal bovine serum. When they reached confluence, they were treated with LPS (Sigma, ref 055: B55) at the concentration of 100 ng/mL, and, within less than 2 min after, with one of the following condition: DECA-EA-Pn at 10, 100, 500 or 1,000 nM, or EPA-EA-Pn at 10, 100, 500 or 1,000 ng/mL. Cells were harvested 5 hours later, and the level of IL-6 mRNA was measured by RT-qPCR as in B.2.1.4, with primers listed in table 1.

[9] = Hydrosolubility compared with synaptamide; assay type: physicochemical
[10] = 2 mg/kg i.p., 1 h after cessation of SE then daily
[11] = 5 mg/kg i.p., 1 h after cessation of SE then daily

CC/C=C\C/C=C\C/C=C\C/C=C\C/C=C\C/C=C\CCC(=O)O [DHA, docosahexaenoic acid, reference compound]
LTP magnitude (EPSP amplitude, % of baseline) ([1]; per os, dose equivalent to 100 mg/kg of Synaptamide phosphonate): 129.5±10.2%

CCC=CCC=CCC=CCC=CCC=CCC=CCCC(=O)NC(COP(=O)(O)CCN)C(O)C=CCCCCCCCCCCCCC (stereo not shown) [SSL-X1]
distribution of SSL-X1 along the intestinal tract [2]: able to reach the colon | induction of MCP1, IL6 and COX-2 transcripts after SE [3]: partially prevented

CCC=CCC=CCC=CCC=CCC=CCC=CCCC(=O)NCCP(=O)(O)OCC(N)C(O)C=CCCCCCCCCCCCCC (stereo not shown) [SSLX2]
LTP magnitude (EPSP amplitude, % of baseline) ([1]; per os, dose equivalent to 10 mg/kg of Synaptamide phosphonate): 135.6±9.9% | LTP magnitude (EPSP amplitude, % of baseline) ([1]; per os, dose equivalent to 30 mg/kg of Synaptamide phosphonate): 172.9±6.5%

CC/C=C\C/C=C\C/C=C\C/C=C\C/C=C\C/C=C\CCC(=O)NCCO [synaptamide, N-Docosahexaenoylethanolamine, reference compound]
LPS-mediated induction of transcripts encoding neuroinflammatory markers ([4]; 2 mg/Kg synaptamide equivalent i.p. one minute after LPS 1 mg/Kg, 21-day-old rats): partially prevent | reduction of the Neuroinflammatory Index measured both in the hippocampus and the neocortex ([4]; 2 mg/Kg synaptamide equivalent i.p. one minute after LPS): ~ 50% | induction of IL1β mRNA in response to Pilo-SE [5]: reduced | LTP magnitude (EPSP amplitude, % of baseline) ([6]; bath application 100 nM): 166.8±12.2% | LTP magnitude (EPSP amplitude, % of baseline) ([6]; bath application 400 nM): 164.2±20.5% | LTP magnitude (EPSP amplitude, % of baseline) [1, 10]: 189.7±11.4% | LTP magnitude (EPSP amplitude, % of baseline) [1, 11]: 151.54±7.15% | LTP magnitude (EPSP amplitude, % of baseline) ([1]; 10 mg/kg i.p., 1 h after cessation of SE then daily): 195.2±8% | spatial learning in MWM (latency to find the platform) [7]: significantly increased spatial learning acquisition

CCCCCCCCCC(=O)O.NCCO.O=[PH](O)O [DECA-EA-Pn, decanoic acid ethanolamine phosphonate]
induction of IL-6 mRNA levels [8]: significantly reduced | LTP magnitude (EPSP amplitude, % of baseline) [1, 11]: 130.3±7%

eicosapentaenoic acid ethanolamine phosphonate [EPA-EA-Pn]
induction of IL-6 mRNA levels [8]: significantly reduced | LTP magnitude (EPSP amplitude, % of baseline) [1, 11]: 154.4±12.1%

CC/C=C\C/C=C\C/C=C\C/C=C\C/C=C\C/C=C\CCC(=O)NCCOP(=O)(O)O [synaptamide phosphate]
LTP magnitude (EPSP amplitude, % of baseline) ([6]; bath application 100 nM): 144.5±9.39% | LTP magnitude (EPSP amplitude, % of baseline) [1, 10]: 168.9±7.1% | LTP magnitude (EPSP amplitude, % of baseline) [1, 11]: 162.3±10.8% | hydrosolubility relative to synaptamide [9]: more hydrosoluble than synaptamide
